Patent US20230109010A1, “PESTICIDE COMPOSITIONS WITH SUPRAMOLECULAR STRUCTURES FOR AGRICULTURAL USE” (BPS JUST ENERGY TECHNOLOGY, LLC, priority 2020, published 2023)

Tests used:
fall panicum [1] = test: Field trial in corn at V3, broadcast treatment on 2-4 inch weeds, % weed control; type: in vivo, Panicum dichotomiflorum
Text: (§1) The herbicides tested were glufosinate, glyphosate, and mesotrione. Each herbicide was combined at the specified rate with either deionized water or SymMAX™ supramolecular host water mixture commercially available from Shotwell Hydrogenics at 15 gallons per acre (GPA). Specified rates for glufosinate were 22 ounces per acre, 11 ounces per acre, and 5.5 ounces per acre. Specified rates for glyphosate were 22 ounces per acre, 11 ounces per acre, and 5.5 ounces per acre. Specified rates for mesotrione were 3 ounces per acre, 2 ounces per acre, and 1 ounce per acre.
(§2) This example was conducted as a 4 replicate, RCBD (randomized control block design) in Quitman, GA. An untreated control was used as a standard that provided no weed control and no phytotoxicity. All treatments were compared to the untreated control. Counted dead weeds and living weeds were used to determine % weed control. The untreated control was also used to determine % crop phytotoxicity for the crop. Typical indications of phytotoxicity include chlorosis, stunting, epinasty, and/or leaf burn.
(§3) The trial ran for 14 days with weekly data assessments taken on % crop phytotoxicity and % weed control of four key species: palmer amaranth (Amaranthus palmeri), ivyleaf morning glory (Ipomoea hederacea), fall panicum (Panicum dichotomiflorum) and large crabgrass (Digitaria sanguinalis The test field was over seeded with weed seed obtained from the University of Georgia prior to corn planting. Treatments were applied as a broadcast treatment when corn had reached physiological growth stage V3 and weeds were in the 2-4″ size range. Treatments were applied at various rates ranging from about 1 ounce per acre to about 22 ounces per acre. Tables 9-10 show the % weed control when the weeds are treated with glufosinate. Tables 11-12 show the % weed control when the weeds are treated with glyphosphate. Tables 13-14 show the % weed control when the weeds are treated with mesotrione.

ivyleaf morning glory = test: as above; type: in vivo, Ipomoea hederacea
Text: as §1, §2, §3

large crabgrass [2] = test: as above; type: in vivo, Digitaria sanguinalis
Text: as §1, §2, §3

palmer amaranth [3] = test: as above; type: in vivo, Amaranthus palmeri
Text: as §1, §2, §3

palmer amaranth [4] = test: Field trial in corn, herbicide applied 3 days after planting, % weed control; type: in vivo, Amaranthus palmeri
Procedure: (§4) The herbicides tested were acetochlor and s-metolachlor. Each herbicide was combined at the specified rate with either deionized water or SymMAX™ supramolecular host chemistry that is commercially available from Shotwell Hydrogenics at 15 gallons per acre (GPA). Specified rates for acetochlor were 0.5 parts per acre, 1 part per acre, and 2 parts per acre. […]
as §2
(§5) The trial ran for 28 days with weekly data assessments taken on % crop phytotoxicity and % weed control of three key species: palmer amaranth (Amaranthus palmeri), fall panicum (Panicum dichotomiflorum) and large crabgrass (Digitaria sanguinalis). The test field was over seeded with weed seed obtained from the University of Georgia prior to corn planting. Treatments were applied 3 days after planting as a broadcast application at various rates ranging from about 0.5 parts per acre to about 2 parts per acre. Tables 1-4 show the % weed control when the weeds are treated with acetachlor. Tables 4-8 show the % weed control when the weeds are treated with s-metolachlor.

fall panicum [5] = test: as above; type: in vivo, Panicum dichotomiflorum
Procedure: as §4, §2, §5

large crabgrass [6] = test: as above; type: in vivo, Digitaria sanguinalis
Procedure: as §4, §2, §5

[7] = 7 days, glyphosate 5.5 ounces/acre
[8] = 7 days, glyphosate 11 ounces/acre
[9] = 7 days, glyphosate 22 ounces/acre
[10] = 14 days, glyphosate 5.5 ounces/acre
[11] = 14 days, glyphosate 11 ounces/acre
[12] = 14 days, glyphosate 22 ounces/acre
[13] = 7 days, s-metolachlor 0.75 part/acre
[14] = 7 days, s-metolachlor 1 part/acre
[15] = 7 days, s-metolachlor 1.5 parts/acre
[16] = 14 days, s-metolachlor 0.75 part/acre
[17] = 14 days, s-metolachlor 1 part/acre
[18] = 14 days, s-metolachlor 1.5 parts/acre
[19] = 21 days, s-metolachlor 0.75 part/acre
[20] = 21 days, s-metolachlor 1 part/acre
[21] = 21 days, s-metolachlor 1.5 parts/acre
[22] = 28 days, s-metolachlor 0.75 part/acre
[23] = 28 days, s-metolachlor 1 part/acre
[24] = 28 days, s-metolachlor 1.5 parts/acre

O=C(O)CNCP(=O)(O)O [Glyphosate, glyphosate]
% WEED CONTROL FOR FALL PANICUM (fall panicum [1]; [7]): 85.8% | % WEED CONTROL FOR FALL PANICUM (fall panicum [1]; [8]): 97.5% | % WEED CONTROL FOR FALL PANICUM (fall panicum [1]; [9]): 98.8% | % WEED CONTROL FOR FALL PANICUM (fall panicum [1]; [10]): 81.8% | % WEED CONTROL FOR FALL PANICUM (fall panicum [1]; [11]): 95.4% | % WEED CONTROL FOR FALL PANICUM (fall panicum [1]; [12]): 98.4% | % WEED CONTROL FOR IVYLEAF MORNINGLORY (ivyleaf morning glory; [7]): 14.3% | % WEED CONTROL FOR IVYLEAF MORNINGLORY (ivyleaf morning glory; [8]): 13.5% | % WEED CONTROL FOR IVYLEAF MORNINGLORY (ivyleaf morning glory; [9]): 28.0% | % WEED CONTROL FOR IVYLEAF MORNINGLORY (ivyleaf morning glory; [10]): 9.7% | % WEED CONTROL FOR IVYLEAF MORNINGLORY (ivyleaf morning glory; [11]): 59.8% | % WEED CONTROL FOR IVYLEAF MORNINGLORY (ivyleaf morning glory; [12]): 76.3% | % WEED CONTROL FOR LARGE CRABGRASS (large crabgrass [2]; [7]): 90.8% | % WEED CONTROL FOR LARGE CRABGRASS (large crabgrass [2]; [8]): 97.8% | % WEED CONTROL FOR LARGE CRABGRASS (large crabgrass [2]; [9]): 100.0% | % WEED CONTROL FOR LARGE CRABGRASS (large crabgrass [2]; [10]): 89.0% | % WEED CONTROL FOR LARGE CRABGRASS (large crabgrass [2]; [11]): 94.0% | % WEED CONTROL FOR LARGE CRABGRASS (large crabgrass [2]; [12]): 98.0% | % WEED CONTROL FOR PALMER AMARANTH (palmer amaranth [3]; [7]): 63.8% | % WEED CONTROL FOR PALMER AMARANTH (palmer amaranth [3]; [8]): 76.4% | % WEED CONTROL FOR PALMER AMARANTH (palmer amaranth [3]; [9]): 81.9% | % WEED CONTROL FOR PALMER AMARANTH (palmer amaranth [3]; [10]): 58.3% | % WEED CONTROL FOR PALMER AMARANTH (palmer amaranth [3]; [11]): 75.8% | % WEED CONTROL FOR PALMER AMARANTH (palmer amaranth [3]; [12]): 83.5%

CCc1cccc(C)c1N(C(=O)CCl)[C@@H](C)COC [S-metolachlor, s-metolachlor]
% WEED CONTROL FOR PALMER AMARANTH (palmer amaranth [4]; [13]): 96.0% | % WEED CONTROL FOR PALMER AMARANTH (palmer amaranth [4]; [14]): 99.3% | % WEED CONTROL FOR PALMER AMARANTH (palmer amaranth [4]; [15]): 100.0% | % WEED CONTROL FOR PALMER AMARANTH (palmer amaranth [4]; [16]): 94.3% | % WEED CONTROL FOR PALMER AMARANTH (palmer amaranth [4]; [17]): 98.0% | % WEED CONTROL FOR PALMER AMARANTH (palmer amaranth [4]; [18]): 100.0% | % WEED CONTROL FOR PALMER AMARANTH (palmer amaranth [4]; [19]): 96.0% | % WEED CONTROL FOR PALMER AMARANTH (palmer amaranth [4]; [20]): 99.0% | % WEED CONTROL FOR PALMER AMARANTH (palmer amaranth [4]; [21]): 100.0% | % WEED CONTROL FOR PALMER AMARANTH (palmer amaranth [4]; [22]): 98.8% | % WEED CONTROL FOR PALMER AMARANTH (palmer amaranth [4]; [23]): 100.0% | % WEED CONTROL FOR PALMER AMARANTH (palmer amaranth [4]; [24]): 100.0% | % WEED CONTROL FOR FALL PANICUM (fall panicum [5]; [13]): 91.3% | % WEED CONTROL FOR FALL PANICUM (fall panicum [5]; [14]): 97.5% | % WEED CONTROL FOR FALL PANICUM (fall panicum [5]; [15]): 100.0% | % WEED CONTROL FOR FALL PANICUM (fall panicum [5]; [16]): 83.5% | % WEED CONTROL FOR FALL PANICUM (fall panicum [5]; [17]): 91.8% | % WEED CONTROL FOR FALL PANICUM (fall panicum [5]; [18]): 97.8% | % WEED CONTROL FOR FALL PANICUM (fall panicum [5]; [19]): 90.1% | % WEED CONTROL FOR FALL PANICUM (fall panicum [5]; [20]): 89.4% | % WEED CONTROL FOR FALL PANICUM (fall panicum [5]; [21]): 98.9% | % WEED CONTROL FOR FALL PANICUM (fall panicum [5]; [22]): 88.3% | % WEED CONTROL FOR FALL PANICUM (fall panicum [5]; [23]): 97.3% | % WEED CONTROL FOR FALL PANICUM (fall panicum [5]; [24]): 100.0% | % WEED CONTROL FOR LARGE CRABGRASS (large crabgrass [6]; [13]): 92.0% | % WEED CONTROL FOR LARGE CRABGRASS (large crabgrass [6]; [14]): 99.0% | % WEED CONTROL FOR LARGE CRABGRASS (large crabgrass [6]; [15]): 100.0% | % WEED CONTROL FOR LARGE CRABGRASS (large crabgrass [6]; [16]): 82.8% | % WEED CONTROL FOR LARGE CRABGRASS (large crabgrass [6]; [17]): 89.0% | % WEED CONTROL FOR LARGE CRABGRASS (large crabgrass [6]; [18]): 98.0% | % WEED CONTROL FOR LARGE CRABGRASS (large crabgrass [6]; [19]): 91.3% | % WEED CONTROL FOR LARGE CRABGRASS (large crabgrass [6]; [20]): 84.3% | % WEED CONTROL FOR LARGE CRABGRASS (large crabgrass [6]; [21]): 93.0% | % WEED CONTROL FOR LARGE CRABGRASS (large crabgrass [6]; [22]): 90.0% | % WEED CONTROL FOR LARGE CRABGRASS (large crabgrass [6]; [23]): 99.7% | % WEED CONTROL FOR LARGE CRABGRASS (large crabgrass [6]; [24]): 100.0%
